Assay results as given in the supplement of paper PMC10307832.

Tests used:
Assay in all cases: relative viability (nuclei count vs DMSO), 5 days (fraction); higher = more cells survive
[1] = compound: CCn1c(-c2nonc2N)nc2cnc(Oc3cccc(NC(=O)c4ccc(OCCN5CCOCC5)cc4)c3)cc21 + O=C(CCCCCCC(=O)Nc1ccccc1)NO [Vorinostat] (partner 1 µM)
How it was run: (§1)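 A single step with final 0.05% Triton X-100, 1% formaldehyde and 1 ug/ml Hoechst fixed the cells and stained nuclei 5 days after treatment. Lung cancer cell lines in 1536-well plates had been treated by pin tool the day after seeding with one drug alone or a fixed anchor-drug dose plus five library-drug doses (not always all listed) in √10 steps, and nuclei were counted on 4× images. Relative viability is the ratio of nuclei in treated wells to nuclei in vehicle wells, taken as the median of duplicate plates.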

[2] = compound: CCn1c(-c2nonc2N)nc2cnc(Oc3cccc(NC(=O)c4ccc(OCCN5CCOCC5)cc4)c3)cc21 + C[C@@H](Oc1cc(-c2cnn(C3CCNCC3)c2)cnc1N)c1c(Cl)ccc(F)c1Cl [Crizotinib] (partner 1 µM)
How it was run: as §1

Mirin + Vorinostat = compound: N=C1NC(=O)/C(=C/c2ccc(O)cc2)S1 [Mirin] + O=C(CCCCCCC(=O)Nc1ccccc1)NO [Vorinostat] (partner 1 µM)
How it was run: as §1

[3] = compound: CCn1c(-c2nonc2N)nc2cnc(Oc3cccc(NC(=O)c4ccc(OCCN5CCOCC5)cc4)c3)cc21 + Nc1ncn([C@H]2C[C@H](O)[C@@H](CO)O2)c(=O)n1 [Decitabine] (partner 2 µM)
How it was run: as §1

Row | Cell Line | relative viability ([1]; first compound 0.04 µM) | relative viability ([1]; first compound 0.1265 µM) | relative viability ([1]; first compound 0.4 µM) | relative viability ([1]; first compound 1.265 µM) | relative viability ([1]; first compound 4 µM) | relative viability ([2]; first compound 0.04 µM) | relative viability ([2]; first compound 0.1265 µM) | relative viability ([2]; first compound 0.4 µM) | relative viability ([2]; first compound 1.265 µM) | relative viability ([2]; first compound 4 µM) | relative viability (Mirin + Vorinostat; first compound 0.25 µM) | relative viability (Mirin + Vorinostat; first compound 0.7906 µM) | relative viability (Mirin + Vorinostat; first compound 2.5 µM) | relative viability (Mirin + Vorinostat; first compound 7.906 µM) | relative viability (Mirin + Vorinostat; first compound 25 µM) | relative viability ([3]; first compound 0.04 µM) | relative viability ([3]; first compound 0.1265 µM) | relative viability ([3]; first compound 0.4 µM) | relative viability ([3]; first compound 1.265 µM) | relative viability ([3]; first compound 4 µM)
1 | NCI-H1650 | 0.666 | 0.59 | 0.562 | 0.596 | 0.528 | 1.12 | 0.957 | 0.897 | 0.761 | 0.711 | 0.497 | 0.656 | 0.51 | 0.482 | 0.495 | 0.504 | 0.282 | 0.348 | 0.604 | 0.478
2 | NCI-H441 | 1.04 | 0.705 | 0.87 | 0.502 | 0.47 | 1.02 | 0.659 | 0.606 | 0.479 | 0.431 | 0.805 | 0.933 | 0.806 | 0.752 | 0.896 | 0.307 | 0.183 | 0.227 | 0.265 | 0.261
3 | NCI-H727 | – | 1.23 | 1.05 | 0.961 | 1.36 | 1.16 | 1.04 | 1.14 | 0.835 | 0.823 | 0.912 | 1.27 | 1.24 | 1.23 | 1.19 | – | 1.07 | 0.676 | 0.662 | 0.973
4 | NCI-H23 | 0.735 | 0.526 | 0.3 | 0.531 | 0.55 | 0.812 | 0.82 | – | 0.439 | 0.305 | 0.624 | – | 0.565 | 0.54 | 0.601 | 0.362 | 0.342 | 0.334 | 0.234 | 0.263
5 | NCI-H596 | 0.598 | 0.531 | 0.617 | 0.468 | 0.604 | 0.857 | 0.934 | 0.932 | 0.959 | 1.03 | 0.727 | 0.474 | 0.641 | 0.758 | 0.589 | 1.01 | 1.04 | 0.969 | 0.926 | 0.932
6 | NCI-H460 | 0.952 | 0.729 | 0.471 | 0.189 | 0.107 | 0.962 | 0.697 | 0.597 | 0.276 | 0.0863 | 0.709 | 0.824 | 0.666 | 0.687 | 0.685 | 0.515 | 0.574 | 0.383 | 0.245 | 0.148
